Legend:
Assay type in all cases: cell-based
RAMP2-CLR (AM1 receptor) = target: T1, RAMP2-CLR (AM1 receptor) (Homo sapiens, UniProt O60895+Q16602); assay: S. cerevisiae growth assay, GPA1/Gαs chimera, RAMP2 + CLR; details: percentage of yeast strain MMY11 (lacking GPA1); 20 h; mean ± S.E., n = 7
T1 construct: FLAG; expressed in transfected cells; host or cells: HEK-293 or HEK-293S cells, transient transfection, 1:1 RAMP:CLR
Description: (§1) FIGURE 1. […] Reporter gene activity was determined following 20 h of stimulation with each ligand. Data are expressed as a percentage of the maximum response observed in yeast strain MMY11 (lacking GPA1) and are means ± S.E. of n individual data sets. […] Data were determined as statistically different from the cognate ligand for each receptor (*, p < 0.05; **, p < 0.01; ***, p < 0.001) using a one-way ANOVA with Bonferroni's post-test.
(§2) General yeast procedures were performed as described previously ([22], [24]). The human CLR was introduced into yeast cells under the control of the PGK promoter using a plasmid containing ura3 (pDT-PGK). […] Receptor signaling was measured using the yeast growth assay as described previously ([24]). […] A fluorescein signal was detected as an increase in fluorescence (excitation wavelength = 485 nm, emission wavelength = 535 nm) as a measure of growth. Different concentrations of ligand (0.01 nM–100 μM) were assayed using 96-well plates, and fluorescence was detected using a Tecan Infinite M200 microplate reader (Tecan Ultra Evolution, Reading, UK) or a Mithras LB 940 microplate reader (Berthold Technologies, Harpenden, UK) for 20 h.
(§3) Data analysis for cAMP assays was performed in GraphPad Prism 6.0f (San Diego, CA). […] To quantitate the ligand-dependent response in the yeast system, a strain lacking GPA1 (MMY11), grown in rich medium, was used as a standard ([72]). […]

RAMP3-CLR (AM2 receptor) = target: T2, RAMP3-CLR (AM2 receptor) (Homo sapiens, UniProt O60896+Q16602); assay: S. cerevisiae growth assay, GPA1/Gαs chimera, RAMP3 + CLR; details: percentage of yeast strain MMY11 (lacking GPA1); 20 h; mean ± S.E., n = 8
T2 construct: FLAG; expressed in transfected cells; host or cells: HEK-293 or HEK-293S cells, transient transfection, 1:1 RAMP:CLR
T2 sequence (Q16602 23-461): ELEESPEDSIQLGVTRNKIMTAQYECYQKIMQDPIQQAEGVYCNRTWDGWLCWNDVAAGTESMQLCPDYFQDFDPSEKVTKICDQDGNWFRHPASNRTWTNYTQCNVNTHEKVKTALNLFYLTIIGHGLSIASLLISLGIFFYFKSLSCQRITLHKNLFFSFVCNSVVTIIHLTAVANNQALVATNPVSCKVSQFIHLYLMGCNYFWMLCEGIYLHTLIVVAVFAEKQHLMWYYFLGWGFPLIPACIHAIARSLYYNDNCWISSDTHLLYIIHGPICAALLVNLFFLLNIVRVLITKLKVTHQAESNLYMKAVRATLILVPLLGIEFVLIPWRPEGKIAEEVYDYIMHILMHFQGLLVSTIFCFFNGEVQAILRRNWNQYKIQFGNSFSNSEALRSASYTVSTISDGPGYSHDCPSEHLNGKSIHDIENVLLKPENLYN
T2 sequence (O60896 24-148): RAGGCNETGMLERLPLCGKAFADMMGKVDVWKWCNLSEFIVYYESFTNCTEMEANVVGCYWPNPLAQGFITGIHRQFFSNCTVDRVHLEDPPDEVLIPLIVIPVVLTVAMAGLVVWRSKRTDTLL
Description: as §1, §2, §3

[1] = target: T3, RAMP1-CLR (CGRP receptor) (Homo sapiens, UniProt O60894+Q16602); assay: cAMP accumulation, HEK-293S cells, RAMP1 + CLR; details: HEK293S, untreated, percentage of maximal cAMP with 100 μM forskolin, mean ± S.E., n = 5
T3 construct: FLAG; expressed in transfected cells; host or cells: HEK-293 or HEK-293S cells, transient transfection, 1:1 RAMP:CLR
T3 sequence (Q16602 23-461): as the sequence (Q16602 23-461) above
T3 sequence (O60894 27-148): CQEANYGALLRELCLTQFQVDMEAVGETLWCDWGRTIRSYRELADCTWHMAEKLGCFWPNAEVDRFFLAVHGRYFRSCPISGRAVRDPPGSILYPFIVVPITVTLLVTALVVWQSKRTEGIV
Description: HEK-293 cells were transfected with FuGENE 6 (Roche Applied Science) in accordance with the manufacturer's instructions using a 1:3 (w:v) DNA:FuGENE ratio and a 1:1 ratio of RAMP to CLR. […] The transfected cell lines were grown for 24–48 h prior to assaying.
The transfected HEK-293 cells were washed in PBS, resuspended in stimulation buffer (PBS containing 0.1% BSA and 0.5 mM IBMX), and seeded at 2000 cells/well in 384-well white Optiplates. Ligands were added in the range of 1 pM to 1 mM, and cAMP accumulation was measured after 30 min of stimulation using a LANCE® cAMP detection kit (PerkinElmer Life Sciences). […] Plates were read using a Mithras LB 940 multimode microplate reader (Berthold Technologies). […] Values were converted to concentration using a cAMP standard curve performed in parallel.
Data analysis for cAMP assays was performed in GraphPad Prism 6.0f (San Diego, CA). […] These values were then used to quantify signaling bias as change in log (τ/Ka) relative to the natural cognate ligand for the respective receptor ([41]). […] Statistical differences were analyzed using one-way ANOVA or Student's t test as appropriate with post hoc Bonferroni's or Dunnett's multiple comparisons, and p < 0.05 was considered significant. […] To quantitate the ligand-dependent response in the yeast system, a strain lacking GPA1 (MMY11), grown in rich medium, was used as a standard ([72]). […]

T1 sequence (Q16602 23-461): as the sequence (Q16602 23-461) above
T1 sequence (O60895 43-175): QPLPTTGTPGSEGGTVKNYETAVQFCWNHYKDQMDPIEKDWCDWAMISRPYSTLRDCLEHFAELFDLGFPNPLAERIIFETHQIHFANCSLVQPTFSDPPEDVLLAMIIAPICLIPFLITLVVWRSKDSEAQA

SMILES | Emax (RAMP2-CLR (AM1 receptor)) | Emax (RAMP3-CLR (AM2 receptor)) | Emax [1]
CSCC[C@H](NC(=O)[C@H](CC(C)C)NC(=O)[C@H](CCC(N)=O)NC(=O)[C@H](Cc1c[nH]c2ccccc12)NC(=O)[C@H](CC(C)C)NC(=O)[C@H](CCCNC(=N)N)NC(=O)[C@H](Cc1c[nH]cn1)NC(=O)[C@H](CO)NC(=O)[C@H](CC(C)C)NC(=O)[C@H](CC(N)=O)NC(=O)[C@H](CCC(N)=O)NC(=O)[C@@H](NC(=O)[C@H](CCC(N)=O)NC(=O)[C@@H]1CSSC[C@H](NC(=O)CNC(=O)[C@@H](NC(=O)[C@H](CCCNC(=N)N)NC(=O)[C@H](CC(C)C)NC(=O)[C@H](CC(C)C)NC(=O)[C@H](CCC(N)=O)NC(=O)[C@H](C)NC(=O)[C@H](CCC(N)=O)NC(=O)[C@@H](N)[C@@H](C)O)C(C)C)C(=O)N[C@@H](C(C)C)C(=O)N[C@@H](CC(C)C)C(=O)NCC(=O)N[C@@H]([C@@H](C)O)C(=O)N1)C(C)C)C(=O)NCC(=O)N1CCC[C@H]1C(=O)N[C@@H](C)C(=O)NCC(=O)N[C@@H](CCCNC(=N)N)C(=O)N[C@@H](CCC(N)=O)C(=O)N[C@@H](CC(=O)O)C(=O)N[C@@H](CO)C(=O)N[C@@H](C)C(=O)N1CCC[C@H]1C(=O)N[C@H](C(=O)N[C@@H](CC(=O)O)C(=O)N1CCC[C@H]1C(=O)N[C@@H](CO)C(=O)N[C@@H](CO)C(=O)N1CCC[C@H]1C(=O)N[C@@H](Cc1c[nH]cn1)C(=O)N[C@@H](CO)C(=O)N[C@@H](Cc1ccc(O)cc1)C(N)=O)C(C)C [AM2, adrenomedullin 2] | 19.9 ± 2.5% | – | –
CC[C@H](C)[C@H](NC(=O)[C@H](CCC(N)=O)NC(=O)[C@H](Cc1c[nH]cn1)NC(=O)[C@H](C)NC(=O)[C@H](CC(C)C)NC(=O)[C@H](CCCCN)NC(=O)[C@H](CCC(N)=O)NC(=O)[C@@H](NC(=O)[C@@H](NC(=O)[C@@H]1CSSC[C@H](NC(=O)CNC(=O)[C@H](Cc2ccccc2)NC(=O)[C@H](CO)NC(=O)[C@H](CCCNC(=N)N)NC(=O)[C@H](CC(C)C)NC(=O)CNC(=O)[C@H](CCC(N)=O)NC(=O)[C@H](Cc2ccccc2)NC(=O)[C@H](CC(N)=O)NC(=O)[C@H](CC(N)=O)NC(=O)[C@H](CCSC)NC(=O)[C@H](CO)NC(=O)[C@H](CCC(N)=O)NC(=O)[C@H](CCCNC(=N)N)NC(=O)[C@@H](N)Cc2ccc(O)cc2)C(=O)N[C@@H](CCCNC(=N)N)C(=O)N[C@@H](Cc2ccccc2)C(=O)NCC(=O)N[C@@H]([C@@H](C)O)C(=O)N1)[C@@H](C)O)C(C)C)C(=O)N[C@@H](Cc1ccc(O)cc1)C(=O)N[C@@H](CCC(N)=O)C(=O)N[C@@H](Cc1ccccc1)C(=O)N[C@H](C(=O)N[C@@H](CC(=O)O)C(=O)N[C@@H](CCCCN)C(=O)N[C@@H](CC(=O)O)C(=O)N[C@@H](CCCCN)C(=O)N[C@@H](CC(=O)O)C(=O)N[C@@H](CC(N)=O)C(=O)N[C@H](C(=O)N[C@@H](C)C(=O)N1CCC[C@H]1C(=O)N[C@@H](CCCNC(=N)N)C(=O)N[C@@H](CO)C(=O)N[C@@H](CCCCN)C(=O)N[C@H](C(=O)N[C@@H](CO)C(=O)N1CCC[C@H]1C(=O)N[C@@H](CCC(N)=O)C(=O)NCC(=O)N[C@@H](Cc1ccc(O)cc1)C(N)=O)[C@@H](C)CC)C(C)C)[C@@H](C)O [AM, adrenomedullin] | – | 25.5 ± 3.6% | 60 ± 3.1%
